In patent US20100056468A1, “Pyrimidine Derivatives As Anticancer Agents” (University Health Network, priority 2007, published 2010):

Legend:
[1] = target: Mt ODCase (Methanothermobacter thermautotrophicus, UniProt O26232); experiment: biochemical; set-up: species or system M. thermoautotrophicum; details: reversible inhibition, 20 nM enzyme, 40 μM OMP
[2] = target: T1, Hs ODCase (Homo sapiens, UniProt P11172); experiment: Reversible (competitive) inhibition of ODCase, calorimetric assay; assay type: biochemical; details: 37° C., 60 nM enzyme
T1 construct: ODCase region of human UMP synthase
Experimental: The stock solution of enzyme (60 μM) was prepared in 50 mM Tris (pH 7.5), 20 mM DTT, and 40 mM NaCl and incubated overnight at 4° C. This stock sample was later used to prepare the enzyme assay samples. The enzyme was kept on ice during the experiment. The enzyme stock was diluted with 50 mM Tris buffer containing 1 mM DTT to prepare 60 nM enzyme assay samples. The final substrate concentration was 15 or 20 μM. Concentrated samples of inhibitors were prepared in 50 mM Tris (pH 7.5). The volumes and concentrations of the enzyme and substrate were the same as described above for the reaction without inhibitor. All three compounds were tested in a competitive inhibition assay where enzyme is mixed with the inhibitor and the reaction is initiated by the substrate addition. Assay samples were prepared in 50 mM Tris, 1 mM DTT. The final assay concentration of 5-F-6-azido-UMP was 0, 0.25, 0.50, 0.75, 1.0 μM. The assay samples were prepared with 0, 0.2, 0.4, 1.0, and 2.0 μM and 0, 50, 100, 250, 500 μM 5-fluoro-6-ethyl-UMP.
The initial data analyses were done in Origin 7.0 software. The raw data representing the heat change over time were converted to the reaction rate at each recorded time point. A Michaelis-Menten plot was constructed and the data were fitted to MM equation (Eq. 1) to determine the kinetic parameters KM and kcat. The molar enthalpy (ΔH) was also automatically calculated.
To calculate the Ki the data were exported to GraFit 5.0 program. The data points were fitted to the competitive inhibition equation (Eq. 2) and the Ki was estimated from the Dixon plot.

[3] = tested on: LOX; experiment: In vitro cell proliferation assay (WST.1, Table 5); assay type: cell-based, human; details: Homo sapiens, 72 h, day 3
Experimental: (§1) These cell lines were grown in Iscove's MDM supplemented with 5% fetal calf serum (FCS), 50 μM 2-mercaptoethanol, 100 μg/ml penicillin, and 100 μg/ml streptomycin. Cell lines growing in suspension were maintained at 0.5-1.5×10^6 cell/ml, while adherent cell lines were maintained at subconfluent densities.
(§2) Cell lines were seeded in triplicate at 10^4 cells/100 μl in 96-well plates. Peripheral blood mononuclear cells were seeded in triplicate at 10^5 cells/100 μl in 96-well plate. Different test compounds were added immediately at final concentrations ranging between 0 to 100 μM. All compounds were dissolved in sterile deionized water, so water was added to the control wells. On day 3, WST.1 assay (Roche) was used to measure the effect of different test compounds on cell growth. WST.1 assay is a calorimetric assay for the nonradioactive quantification of cell proliferation, cell viability, and cytotoxicity. The assay was performed according to manufacturer's instructions (Roche). It relies on the cleavage by cellular enzymes of WST.1 (water soluble tetrazolium salt: 4-[3-(4-iodophenyl)-2-(4-nitrophenyl)-2H-5-tetrazolio]-1,3-benzene disulfonate) to formazan. The amount of formazan dye formed correlates to the number of metabolically active cells in the culture and is readily read in an ELISA microplate reader using an absorbance wavelength of 440 nm. These OD values are plotted against concentrations of different compounds and IC50 is determined for each compound.

[4] = tested on: OCI-AML-1; experiment: In vitro cell proliferation assay (WST.1, Table 5); assay type: cell-based; details: Homo sapiens, 72 h; OCI-AML-1, day 3
Experimental: as §1, §2

[5] = tested on: COLO205; experiment: In vitro cell proliferation assay (WST.1, Table 5); assay type: cell-based; details: Homo sapiens, COLO 205, 72 h; COLO205, day 3
Experimental: as §1, §2

[6] = tested on: OCI-Ly-7; experiment: In vitro cell proliferation assay (WST.1, Table 5); assay type: cell-based; details: Homo sapiens, OCI-Ly7, 72 h; OCI-Ly-7, day 3
Experimental: as §1, §2

[7] = tested on: SNB19; experiment: In vitro cell proliferation assay (WST.1, Table 5); assay type: cell-based; details: Homo sapiens, SNB-19, 72 h; SNB19, day 3
Experimental: as §1, §2

[8] = tested on: OCI-AML-2; experiment: In vitro cell proliferation assay (WST.1, Table 5); assay type: cell-based; details: Homo sapiens, OCI-AML2, 72 h; OCI-AML-2, day 3
Experimental: as §1, §2

[9] = tested on: SKW3; experiment: In vitro cell proliferation assay (WST.1, Table 5); assay type: cell-based; details: Homo sapiens, 72 h; SKW3, day 3
Experimental: as §1, §2

[10] = tested on: T47D; experiment: In vitro cell proliferation assay (WST.1, Table 5); assay type: cell-based; details: Homo sapiens, 72 h, day 3
Experimental: as §1, §2

[11] = tested on: OCVR4; experiment: In vitro cell proliferation assay (WST.1, Table 5); assay type: cell-based; details: Homo sapiens, 72 h; OCVR4, day 3
Experimental: as §1, §2

[12] = tested on: MCF7; experiment: In vitro cell proliferation assay (WST.1, Table 5); assay type: cell-based; details: Homo sapiens, 72 h; MCF7, day 3
Experimental: as §1, §2

[13] = tested on: MDA468; experiment: In vitro cell proliferation assay (WST.1, Table 5); assay type: cell-based; details: Homo sapiens, 72 h; MDA468, day 3
Experimental: as §1, §2

[14] = tested on: CCD967; experiment: In vitro cell proliferation assay (WST.1, Table 5); assay type: cell-based; details: Homo sapiens, CCD-967, 72 h; CCD967 normal skin line, day 3
Experimental: as §1, §2

[15] = tested on: HS58T; experiment: In vitro cell proliferation assay (WST.1, Table 5); assay type: cell-based; details: Homo sapiens, 72 h, day 3
Experimental: as §1, §2

[16] = tested on: PC3; experiment: In vitro cell proliferation assay (WST.1, Table 5); assay type: cell-based; details: Homo sapiens, PC-3, 72 h; PC3, day 3
Experimental: as §1, §2

[17] = tested on: OCI-My-2; experiment: In vitro cell proliferation assay (WST.1, Table 5); assay type: cell-based; details: Homo sapiens, 72 h; OCI-My-2, day 3
Experimental: as §1, §2

[18] = tested on: leukemias (OCI-AML-1, OCI-AML-2, SKW3), lymphomas (OCI-Ly-7), multiple myeloma (OCI-My-2); experiment: In vitro cell proliferation assay (WST.1), summary over cell lines; assay type: cell-based; details: Homo sapiens; OCI-AML-1, OCI-AML-2, SKW3, OCI-Ly-7, OCI-My-2; read-out: IC50 values, range over cell lines
Experimental: as §1, §2

IC50 [5] [nM] | IC50 [8] [nM] | IC50 [10] [nM] | Compound | Ki [1] [nM] | Ki [2] [nM] | IC50 [3] [nM] | IC50 [4] [nM] | IC50 [6] [nM] | IC50 [7] [nM] | IC50 [9] [nM] | IC50 [11] [nM] | IC50 [12] [nM] | IC50 [13] [nM] | IC50 [14] [nM] | IC50 [15] [nM] | IC50 [16] [nM] | IC50 [17] [nM] | IC50 [18] [nM]
 |  |  | O=c1[nH]c(=O)n([C@@H]2O[C@H](COP(=O)(O)O)[C@@H](O)[C@H]2O)cc1F [Compound 5-F-UMP, 5-F-UMP, reference compound] | 646000 ± 15000 | 97800 ± 5900 |  |  |  |  |  |  |  |  |  |  |  |  | 
3300 | 900 | > 4000 | Nc1c(F)c(=O)[nH]c(=O)n1[C@@H]1O[C@H](CO)[C@@H](O)[C@H]1O [In, 5-Fluoro-6-amino uridine] |  | 16600 ± 700 | 3400 | 700 | 1300 | > 4000 | 600 | 2000 | 1400 | 2600 | > 4000 | > 4000 | > 4000 | 900 | 300 to 2100
 |  |  | CCc1c(F)c(=O)[nH]c(=O)n1C1OC(CO)C(O)C1O (stereo not drawn) [Iah] | 29000 ± 300 | 353 ± 10 | 4500 | 2100 | 1900 |  | 1200 |  | 31400 | 5300 |  |  | > 100000 | 1400 | 300 to 2100
